According to patent publication US8486899B2, “Antioxidant” (Morinaga Milk Industry Co., Ltd., priority 2008, dated 2013):

Tests used:
ApoE gene-deficient mice [1] = assay: Number of atherosclerotic lesions (plaques) in thoracic aorta of ApoE gene-deficient mice; format: in vivo; conditions: oral once a day for 39 consecutive days; for Number of plaques formed in thoracic aorta: ApoE gene-deficient mice on high-cholesterol diet, 1 ml of 30 μg/ml per 25 g body weight, Oil red staining 40 days after start; for Effect on plaque formation (in words, versus negative sample): ApoE gene-deficient mice
Procedure: In addition, it is generally known that a primary lesion of arteriosclerosis is caused by oxidized LDL. Therefore, it is also possible to evaluate the action of reducing a risk of arteriosclerosis through inhibiting formation of a lipid peroxide of the test sample by counting the number of atherosclerotic lesions (plaques) in the artery of each model mouse treated with the test sample.
In Example 2, 3-O-β-D-glucopyranosyl-4-methylergost-7-en-3-ol was evaluated on the effect of reducing a risk of arteriosclerosis through the effect of inhibiting a lipid peroxide by counting the number of atherosclerotic lesions (plaques) in the artery using known arteriosclerosis model animals, ApoE gene-deficient mice.
A test sample, a control sample, and a negative sample were prepared in the same way as in Example 1 above and were each used for a test.
(§1) Six-week-old male ApoE gene-deficient mice (purchased from Japan SLC, Inc.) were preliminarily fed with a high-cholesterol diet (manufactured by Research Diets, Inc.) for 2 weeks and divided into groups each of 15 mice.
Each of the sample solutions including the test sample, control sample, and negative sample was separately administered orally once a day for 39 consecutive days using medical probes in an amount of 1 ml per 25 g of mouse body weight. Forty days after the start of administration, the thoracic aorta part was fixed with formalin and stained with Oil red, and the number of plaques was counted.
The test results of this example are shown in Tale 2.

ApoE gene-deficient mice [2] = format: in vivo; conditions: for Amount of lipid peroxide in blood (MDA concentration (μM)): ApoE gene-deficient mice on high-cholesterol diet, oral, once a day, 30 μg per day, serum 14 days after start of administration, TBARS assay kit; for Effect of inhibiting formation of a lipid peroxide in blood (in words, versus negative sample): ApoE gene-deficient mice, oral 30 μg per day, 14 days after start of administration
Text: The actions of inhibiting formation of a lipid peroxide of various test samples including the antioxidant of the present invention can be evaluated by using, as an index, the amount of a thiobarbituric acid (TBA) reactive substance (TBARS), for example. Specifically, it may be defined that the larger the amount of the TBARS, the larger the amount of a lipid peroxide formed.
Examples of the TBARS include malondialdehyde (MDA) which reacts with TBA under high-temperature and acidic conditions and is a natural by-product of a lipid peroxidation. An MDA-TBA adduct can be detected by measurement of an absorbance at 530 to 540 nm to perform colorimetric measurement of MDA.
Also, the action of inhibiting formation of a lipid peroxide of a test sample can be evaluated using ApoE gene-deficient mice, which are often used as model animals which develop arteriosclerosis by hypercholesterolemia (hyper-LDL-cholesterolemia) (for example, see Reference Document 1: “Saibokogaku (Cell Engineering),” Extra Issue, “Medical Experiment Manual” series, Strategy for Study of Arteriosclerosis+Hyperlipidemia, Shujunsha Co., 1st edition, 1st impression, published on Apr. 1, 1996, pp. 441-443).
Further, in the model mice, the lipid peroxide level is higher than that of normal mice, and formation of atherosclerotic lesions (plagues) in the artery is observed with time. Therefore, the action of inhibiting formation of a lipid peroxide of a test sample can be evaluated by administering the test sample to the model mice and measuring a lipid peroxide in blood of the model mice.
Model animals which develop arteriosclerosis, ApoE gene-deficient mice, were used to examine the action of inhibiting formation of a lipid peroxide of 3-O-β-D-glucopyranosyl-4-methylergost-7-en-3-ol.
3-O-β-D-glucopyranosyl-4-methylergost-7-en-3-ol manufactured in Production Example 1 above was used as a test sample, and Mevalotin (DAIICHI SANKYO COMPANY, LIMITED), which is an HMG-CoA reductase inhibitor, was used as a control sample.
Those samples were separately dissolved in physiological saline so that the concentration of each compound was 30 μg/ml and were used for a test. Note that physiological saline was used as a negative sample.
as §1
To mice of each group, the solution including the test sample, control sample, or negative sample was separately administered orally once a day for 3 consecutive days using medical probes in an amount of 1 ml per 25 g of mouse body weight. […] Then, the amount of TBARS was measured using OxiSelect TBARS Assay Kit (manufactured by […]). […]

In the case of `CC[C@H](C)C(=O)O[C@H]1C[C@H](O)C=C2C=C[C@H](C)[C@H](CC[C@@H](O)C[C@@H](O)CC(=O)[O-])[C@H]21.[Na+]` [Control sample, reference compound], the “Number of plaques formed in thoracic aorta” value (shortened to “Number of plaques formed”) (ApoE gene-deficient mice [1]) is reported as 10.6 ± 3.2, the “Effect on plaque formation (in words, versus negative sample)” value (ApoE gene-deficient mice [1]) is reported as “no significant difference although plaque formation was found to decrease” and the “Amount of lipid peroxide in blood (MDA concentration (μM))” value (ApoE gene-deficient mice [2]) is reported as 0.93 ± 0.05 µM. The “Effect of inhibiting formation of a lipid peroxide in blood (in words, versus negative sample)” value (ApoE gene-deficient mice [2]) was “a significant decrease in amount of a lipid peroxide in blood was not observed”.

`CC1C(O[C@@H]2O[C@H](CO)[C@@H](O)[C@H](O)[C@H]2O)CC[C@@]2(C)C1CC=C1[C@@H]3CC[C@H]([C@H](C)CC[C@H](C)C(C)C)[C@@]3(C)CC[C@@H]12` (stereo partly drawn) [Test sample, 3-O-β-D-glucopyranosyl-4-methylergost-7-en-3-ol] was tested, and the “Number of plaques formed” value (ApoE gene-deficient mice [1]) was 5.8 ± 1.6, the “Number of plaques formed” value (ApoE gene-deficient mice [1]; listed as test sample) was 5.8 and the “Effect on plaque formation (in words, versus negative sample)” value (ApoE gene-deficient mice [1]) was “had an effect of inhibiting plaque formation on the arterial endothelium”. The “Amount of lipid peroxide in blood (MDA concentration (μM))” value (ApoE gene-deficient mice [2]) was 0.51 ± 0.22 µM and the “Effect of inhibiting formation of a lipid peroxide in blood (in words, versus negative sample)” value (ApoE gene-deficient mice [2]) was “the effect of inhibiting formation of a lipid peroxide in blood was clearly confirmed”.
